Test results as given in PMC5931107, “Clinical pharmacodynamic/exposure characterisation of the multikinase inhibitor ilorasertib (ABT-348) in a phase 1 dose-escalation trial” (British Journal of Cancer, 2018).
Where two headings read alike, the source gives them in different places.

Experiment: Plasma pharmacokinetics, Arm II (oral BID), phase 1 trial
Format: in vivo, human
Settings: for half-life: read-out: t1/2 (harmonic mean) (converted); for Cmax: read-out: Cmax
Description: Pharmacokinetics of ilorasertib were evaluated in the dose-escalation cohort on blood samples that were collected on cycle 1 days 1 and 15. Parameters determined: Cmax, time to Cmax (Tmax), terminal phase elimination half-life (t1/2), clearance, apparent oral clearance (CL/F), and area under the plasma concentration-time curve from time 0 to time of last measurable concentration (AUCt) and from time 0 to infinity (AUC∞). For Arm I, blood samples were collected prior to dosing and at 0.5, 1, 2, 3, 4, 6, 8, 10 or 12, and 24 h after dosing on cycle 1 days 1 and 15; of note, for institutions not able to collect the 10- or 12-h post-dose sample, the 24-h sample was replaced with 22-h and 28-h post-dose samples. In Arm II, for the first dose, blood samples were collected pre-dose and at 1, 2, 3, and 4 h post-dose on cycle 1 days 1 and 15; for the second dose, samples were collected pre-dose and at 1, 2, 3, 4, 18, and 24 h after second dose on cycle 1 days 1 and 15. In Arm III, blood samples were collected prior to infusion, at 1 h 55 min (just before end of infusion), and at 0.5, 1, 2, 4, 6, 8, 10, and 24 h after end of infusion on cycle 1 days 1 and 15; here also, for institutions not able to collect the 8-h or 10-h after-end-of-infusion samples, the 24-h sample was replaced with 22-h and 28-h post-dose samples. The liquid chromatography (LC)-mass spectrometry (MS)/MS method was developed and validated in the Bioanalysis Department of AbbVie. Fifty microliter of human plasma (K2EDTA as anticoagulant) was fortified with 300 μL of deuterium-stable labelled internal standard and mixed well. A HybridSPE precipitation plate (50 mg/96 wells, Supelco Analytical, Munich, Germany) was used to directly load and elute (under slight vacuum) the fortified samples into a clean collection plate. Samples were dried before reconstitution with 100 μL of 20/80 (v/v) acetonitrile/water, and injected for LC-MS/MS analysis. A Halo C8 (Wilmington, DE, USA; 2.7 μm, 2.1 × 30 mm) was used on an Agilent 1290 Infinity UPLC pump (Agilent Technologies, Santa Clara, CA) to carry out the separation. An isocratic condition with 25/75/0.1 (v/v/v) acetonitrile/water/98% formic acid was used as the mobile phase. The flow rate was set to be 0.6 mL/min. An MPS 3 C ([…] Ruhr, Germany) autosampler was used to introduce samples onto the UPLC system. An API 4000 mass spectrometer (Applied Biosystems, Foster City, CA) was used in the multiple reactions monitoring mode for the detection and quantitation of analyte. Descriptive statistics were used for demographic variables. The numbers and percentages of patients with treatment-emergent AEs (TEAEs) were tabulated using the Medical Dictionary for Regulatory Activities version 16.0 system organ class and preferred term, and further classified according to CTCAE version 4.0 criteria. The safety data set included all patients who received one or more doses of ilorasertib. The pharmacokinetic data set included all patients who received one or more doses of ilorasertib and had one or more pharmacokinetic samples. Values for pharmacokinetic parameters were determined using non-compartmental methods, with data analysed separately for each arm. A repeated measures analysis was performed for Tmax and dose-normalised Cmax, AUCt, and AUC∞. The model included random effects for patient and fixed effects for dose level, day, and the interaction of dose level and day. To assess effects of exposure on pharmacodynamic biomarkers, Cmax was employed as the directly measured marker of exposure for the rapid changes in DBP and PlGF pre-steady-state, while AUC∞ reflected exposure variability at the time of post-multiple-dose skin biopsy. Descriptive statistics were used to summarise ECOG performance status. The efficacy data set included all patients who received one or more doses of ilorasertib.

[1] = human, plasma, po, 40 mg, Arm II PO BID 40 mg, day 1, N=2, mean (individual)
[2] = human, plasma, po, 40 mg, Arm II PO BID 40 mg, day 1, N=3
[3] = human, plasma, po, 40 mg, Arm II PO BID 40 mg, day 15, N=3
[4] = human, plasma, po, 60 mg, Arm II PO BID 60 mg, day 1, N=3
[5] = human, plasma, po, 60 mg, Arm II PO BID 60 mg, day 15, N=1
[6] = human, plasma, po, 60 mg, Arm II PO BID 60 mg, day 15, N=3
[7] = human, plasma, po, 90 mg, Arm II PO BID 90 mg, day 1, N=2, mean (individual)
[8] = human, plasma, po, 90 mg, Arm II PO BID 90 mg, day 15, N=3
[9] = human, plasma, po, 130 mg, Arm II PO BID 130 mg, day 1, N=3
[10] = human, plasma, po, 130 mg, Arm II PO BID 130 mg, day 1, N=4
[11] = human, plasma, po, 130 mg, Arm II PO BID 130 mg, day 15, N=1
[12] = human, plasma, po, 130 mg, Arm II PO BID 130 mg, day 15, N=3
[13] = human, plasma, po, 190 mg, Arm II PO BID 190 mg, day 15, N=2, mean (individual)
[14] = human, plasma, po, 190 mg, Arm II PO BID 190 mg, day 15, N=5
[15] = human, plasma, po, 230 mg, Arm II PO BID 230 mg, day 1, N=2, mean (individual)
[16] = human, plasma, po, 230 mg, Arm II PO BID 230 mg, day 1, N=3
[17] = human, plasma, po, 230 mg, Arm II PO BID 230 mg, day 15, N=1
[18] = human, plasma, po, 230 mg, Arm II PO BID 230 mg, day 15, N=4
[19] = human, plasma, po, 340 mg, Arm II PO BID 340 mg, day 1, N=1
[20] = human, plasma, po, 340 mg, Arm II PO BID 340 mg, day 1, N=3
[21] = human, plasma, po, 340 mg, Arm II PO BID 340 mg, day 15, N=1

SMILES: Nc1ncc(-c2cnn(CCO)c2)c2scc(-c3ccc(NC(=O)Nc4cccc(F)c4)cc3)c12 [ilorasertib, Ilorasertib]
- Tmax (Arm II, oral administration in two divided doses, versus Arm I): delayed by several hours
- AUC(0-inf) [1]: 3990 ng·h/mL
- half-life [1]: 11 h
- AUC(0-t) [2]: 3720 ± 1640 ng·h/mL
- Cmax [2]: 250 ± 120 ng/mL
- Tmax (human, plasma, po, 40 mg, Arm II PO BID 40 mg, day 1, N=3, read-out: Tmax): 7.3 ± 3.8 h
- AUC(0-t) [3]: 3750 ± 2050 ng·h/mL
- Cmax [3]: 190 ± 110 ng/mL
- Tmax (human, plasma, po, 40 mg, Arm II PO BID 40 mg, day 15, N=3, read-out: Tmax): 10 h
- AUC(0-t) [4]: 5450 ± 1460 ng·h/mL
- Cmax [4]: 380 ± 140 ng/mL
- Tmax (human, plasma, po, 60 mg, Arm II PO BID 60 mg, day 1, N=3, read-out: Tmax): 5.7 ± 3.8 h
- AUC(0-inf) [5]: 5430 ng·h/mL
- half-life [5]: 11.8 h
- AUC(0-t) [6]: 2920 ± 710 ng·h/mL
- Cmax [6]: 230 ± 60 ng/mL
- Tmax (human, plasma, po, 60 mg, Arm II PO BID 60 mg, day 15, N=3, read-out: Tmax): 4.8 ± 2.8 h
- AUC(0-inf) [7]: 4030 ng·h/mL
- half-life [7]: 10.1 h
- AUC(0-t) (human, plasma, po, 90 mg, Arm II PO BID 90 mg, day 1, N=3): 3920 ± 1530 ng·h/mL
- Tmax (human, plasma, po, 90 mg, Arm II PO BID 90 mg, day 1, N=3, read-out: Tmax): 9 ± 1 h
- AUC(0-inf) (human, plasma, po, 90 mg, Arm II PO BID 90 mg, day 15, N=2, mean (individual)): 5330 ng·h/mL
- AUC(0-t) [8]: 4060 ± 1510 ng·h/mL
- Cmax [8]: 320 ± 100 ng/mL
- Tmax (human, plasma, po, 90 mg, Arm II PO BID 90 mg, day 15, N=3, read-out: Tmax): 7.6 ± 5.4 h
- AUC(0-inf) [9]: 6530 ± 4460 ng·h/mL
- half-life [9]: 18.6 ± 17.6 h
- AUC(0-t) [10]: 5070 ± 3180 ng·h/mL
- Cmax [10]: 600 ± 390 ng/mL
- Tmax (human, plasma, po, 130 mg, Arm II PO BID 130 mg, day 1, N=4, read-out: Tmax): 7.5 ± 1.7 h
- AUC(0-inf) [11]: 3960 ng·h/mL
- half-life [11]: 7.5 h
- AUC(0-t) [12]: 2400 ± 1290 ng·h/mL
- Cmax [12]: 260 ± 280 ng/mL
- Tmax (human, plasma, po, 130 mg, Arm II PO BID 130 mg, day 15, N=3, read-out: Tmax): 11 ± 11.5 h
- AUC(0-inf) (human, plasma, po, 190 mg, Arm II PO BID 190 mg, day 1, N=4): 17800 ± 11300 ng·h/mL
- Cmax (human, plasma, po, 190 mg, Arm II PO BID 190 mg, day 1, N=7): 540 ± 280 ng/mL
- Tmax (human, plasma, po, 190 mg, Arm II PO BID 190 mg, day 1, N=7, read-out: Tmax): 10.2 ± 6.7 h
- AUC(0-inf) [13]: 10700 ng·h/mL
- half-life [13]: 8.4 h
- AUC(0-t) [14]: 6690 ± 5220 ng·h/mL
- Cmax [14]: 630 ± 380 ng/mL
- Tmax (human, plasma, po, 190 mg, Arm II PO BID 190 mg, day 15, N=5, read-out: Tmax): 13.2 ± 10.2 h
- AUC(0-inf) [15]: 9140 ng·h/mL
- half-life [15]: 9 h
- AUC(0-t) [16]: 10100 ± 3620 ng·h/mL
- Cmax [16]: 700 ± 230 ng/mL
- Tmax (human, plasma, po, 230 mg, Arm II PO BID 230 mg, day 1, N=3, read-out: Tmax): 8.7 ± 1.2 h
- AUC(0-inf) [17]: 13000 ng·h/mL
- half-life [17]: 8 h
- AUC(0-t) [18]: 11200 ± 4340 ng·h/mL
- Cmax [18]: 790 ± 460 ng/mL
- Tmax (human, plasma, po, 230 mg, Arm II PO BID 230 mg, day 15, N=4, read-out: Tmax): 9.5 ± 0.6 h
- AUC(0-inf) [19]: 98800 ng·h/mL
- half-life [19]: 39.6 h
- AUC(0-t) [20]: 39300 ± 14800 ng·h/mL
- Cmax [20]: 2040 ± 870 ng/mL
- Tmax (human, plasma, po, 340 mg, Arm II PO BID 340 mg, day 1, N=3, read-out: Tmax): 15 ± 8 h
- AUC(0-t) [21]: 15700 ng·h/mL
- Cmax [21]: 770 ng/mL
- Tmax (human, plasma, po, 340 mg, Arm II PO BID 340 mg, day 15, N=1, read-out: Tmax): 10 h
- Tmax (human, plasma, po, Arm II PO BID all doses, day 1, N=26, read-out: Tmax): 9.2 ± 5 h
- Tmax (human, plasma, po, Arm II PO BID all doses, day 15, N=22, read-out: Tmax): 9.7 ± 6.6 h
